Results taken from publication PMC3446250 (2012).

Target: T1, GLIC (Gloeobacter violaceus, UniProt Q7NDN8, N194C)
T1 sequence (Q7NDN8 44-359 N194C): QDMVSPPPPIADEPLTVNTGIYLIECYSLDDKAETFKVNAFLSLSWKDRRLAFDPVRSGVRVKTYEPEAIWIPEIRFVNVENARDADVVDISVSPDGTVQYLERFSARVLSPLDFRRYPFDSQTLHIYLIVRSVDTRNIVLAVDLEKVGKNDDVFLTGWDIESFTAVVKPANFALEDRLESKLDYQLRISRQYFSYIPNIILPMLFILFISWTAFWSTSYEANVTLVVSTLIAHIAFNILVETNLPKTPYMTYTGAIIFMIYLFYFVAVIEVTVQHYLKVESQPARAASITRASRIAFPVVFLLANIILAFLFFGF
Experiment: two-electrode voltage clamp in Xenopus oocytes at EC20
Format: cell-based

How did the IC50 turn out when `CNC1(c2ccccc2Cl)CCCCC1=O` (stereo not shown) [ketamine] was run?
The IC50 was 110 µM.
